Values of other authors as cited in patent publication US11338055B2, “Wound dressing” (Animal Ethics Pty Ltd, priority 2017, dated 2022).

Details: typically up to about; depending on the method of administration

With `CCCCN1CCCCC1C(=O)Nc1c(C)cccc1C` (stereo not shown) [bupivacaine] as the compound, how does the duration of anaesthesia read?
Its duration of anaesthesia is 6 to 12 h.
